# Laboratory results from US10336809B2, “Peptides and combination of peptides for use in immunotherapy against various tumors” (immatics biotechnologies GmbH, priority 2015, dated 2019).
# Tested on: CD8+ T cells
# Assay: In vitro T-cell priming assay with aAPCs loaded with peptide/MHC complexes and anti-CD28 antibody, pMHC multimer readout
# Format: cell-based, human
# Settings: healthy HLA-A*02+ donors, positive donors
# From the text: In order to obtain information regarding the immunogenicity of the TUMAPs of the present invention, the inventors performed investigations using an in vitro T-cell priming assay based on repeated stimulations of CD8+ T cells with artificial antigen presenting cells (aAPCs) loaded with peptide/MHC complexes and anti-CD28 antibody.
# In order to perform in vitro stimulations by artificial antigen presenting cells loaded with peptide-MHC complex (pMHC) and anti-CD28 antibody, the inventors first isolated CD8+ T cells from fresh HLA-A*02 leukapheresis products via positive selection using CD8 microbeads (Miltenyi Biotec, Bergisch-Gladbach, Germany) of healthy donors obtained from the University clinics Mannheim, Germany, after informed consent. PBMCs and isolated CD8+ lymphocytes were incubated in T-cell medium (TCM) until use consisting of RPMI-Glutamax (Invitrogen, Karlsruhe, Germany) supplemented with 10% heat inactivated human AB serum (PAN-Biotech, Aidenbach, Germany), 100 U/ml Penicillin/100 μg/ml Streptomycin (Cambrex, Cologne, Germany), 1 mM sodium pyruvate (CC Pro, Oberdorla, Germany), 20 μg/ml Gentamycin (Cambrex). 2.5 ng/ml IL-7 (PromoCell, Heidelberg, Germany) and 10 U/ml IL-2 (Novartis Pharma, Nürnberg, Germany) were also added to the TCM at this step. Generation of pMHC/anti-CD28 coated beads, T-cell stimulations and readout was performed in a highly defined in vitro system using four different pMHC molecules per stimulation condition and 8 different pMHC molecules per readout condition.
# The purified co-stimulatory mouse IgG2a anti human CD28 Ab 9.3 (Jung et al., 1987) was chemically biotinylated using Sulfo-N-hydroxysuccinimidobiotin as recommended by the manufacturer (Perbio, Bonn, Germany). Beads used were 5.6 μm diameter streptavidin coated polystyrene particles (Bangs Laboratories, Illinois, USA).
# pMHC used for positive and negative control stimulations were A*0201/MLA-001 (peptide […] (SEQ ID NO. 289) from modified Melan-A/MART-1) and A*0201/DDX5-001 ([…] from DDX5, SEQ ID NO. 290), respectively.
# 800.000 beads/200 μl were coated in 96-well plates in the presence of 4×12.5 ng different biotin-pMHC, washed and 600 ng biotin anti-CD28 were added subsequently in a volume of 200 μl. Stimulations were initiated in 96-well plates by co-incubating […] CD8+ T cells with 2×10^5 washed coated beads in 200 μl TCM supplemented with 5 ng/ml IL-12 (PromoCell) for 3 days at 37° C. Half of the medium was then exchanged by fresh TCM supplemented with 80 U/ml IL-2 and incubating was continued for 4 days at 37° C. This stimulation cycle was performed for a total of three times. For the pMHC multimer readout using 8 different pMHC molecules per condition, a two-dimensional combinatorial coding approach was used as previously described (Andersen et al., 2012) with minor modifications encompassing coupling to 5 different fluorochromes. Finally, multimeric analyses were performed by staining the cells with Live/dead near IR dye (Invitrogen, Karlsruhe, Germany), CD8-FITC antibody clone SK1 (BD, Heidelberg, Germany) and fluorescent pMHC multimers. For analysis, a BD LSRII SORP cytometer equipped with appropriate lasers and filters was used. Peptide specific cells were calculated as percentage of total CD8+ cells. Evaluation of multimeric analysis was done using the FlowJo software (Tree Star, Oregon, USA). In vitro priming of specific multimer+ CD8+ lymphocytes was detected by comparing to negative control stimulations.
# Exemplary flow cytometry results after TUMAP-specific multimer staining for 2 peptides of the invention are shown in FIG. 3 together with corresponding negative controls.
row,Substance,"in vitro immunogenicity, donors"
1,287 (KIQEILTQV; listed as Homo sapiens) [compound 287],+++ (50%-69% = +++)
2,288 (SLYKGLLSV; listed as Homo sapiens) [compound 288],++++ (>=70% = ++++)

# Same assay, conditions: healthy HLA-A*02+ donors, positive wells
row,Substance,"in vitro immunogenicity, wells"
1,287 (KIQEILTQV; listed as Homo sapiens) [compound 287],+ (<20% = +)

# Same assay, conditions: in vitro immunogenicity, HLA-A*02 restricted peptides, CD8+ T cells of healthy donors, pMHC multimer readout
row,Substance,Wells positive [%]
1,4 (VLFGELPAL; listed as Homo sapiens) [compound 4],+ (<20% = +)
2,9 (SLITGQDLLSV; listed as Homo sapiens) [compound 9],+ (<20% = +)
3,14 (YTFSGDVQL; listed as Homo sapiens) [compound 14],+ (<20% = +)
4,17 (GLLPSAESIKL; listed as Homo sapiens) [compound 17],+ (<20% = +)
5,27 (GLLGKVTSV; listed as Homo sapiens) [compound 27],+ (<20% = +)
6,29 (KMISAIPTL; listed as Homo sapiens) [compound 29],+ (<20% = +)
7,34 (TLNTLDINL; listed as Homo sapiens) [compound 34],++++ (>=70% = ++++)
8,35 (VIIKGLEEI; listed as Homo sapiens) [compound 35],+ (<20% = +)
9,39 (YLEDGFAYV; listed as Homo sapiens) [compound 39],++++ (>=70% = ++++)
10,50 (ILLSVLHQL; listed as Homo sapiens) [compound 50],+ (<20% = +)
11,66 (AMFPDTIPRV; listed as Homo sapiens) [compound 66],+ (<20% = +)
12,77 (ALYGNVQQV; listed as Homo sapiens) [compound 77],+ (<20% = +)
13,89 (SLAETIFIV; listed as Homo sapiens) [compound 89],+ (<20% = +)
14,97 (KLFEKSTGL; listed as Homo sapiens) [compound 97],+ (<20% = +)
15,101 (SLLEVNEASSV; listed as Homo sapiens) [compound 101],+ (<20% = +)
16,102 (GLYPVTLVGV; listed as Homo sapiens) [compound 102],+ (<20% = +)
17,121 (ALYVQAPTV; listed as Homo sapiens) [compound 121],+ (<20% = +)
18,157 (ILQDGQFLV; listed as Homo sapiens) [compound 157],+ (<20% = +)
19,233 (SLFESLEYL; listed as Homo sapiens) [compound 233],+ (<20% = +)
20,236 (KMSELQTYV; listed as Homo sapiens) [compound 236],+ (<20% = +)
21,242 (KLQEEIPVL; listed as Homo sapiens) [compound 242],+ (<20% = +)
22,246 (ALAGIVTNV; listed as Homo sapiens) [compound 246],+ (<20% = +)
23,254 (ALGDKFLLRV; listed as Homo sapiens) [compound 254],+ (<20% = +)
24,255 (FLMKNSDLYGA; listed as Homo sapiens) [compound 255],+ (<20% = +)
25,257 (KLIDHQGLYL; listed as Homo sapiens) [compound 257],+ (<20% = +)
26,260 (ALNESLVEC; listed as Homo sapiens) [compound 260],+ (<20% = +)
27,263 (SIIEYLPTL; listed as Homo sapiens) [compound 263],+ (<20% = +)
28,264 (TLHDQVHLL; listed as Homo sapiens) [compound 264],+ (<20% = +)
29,267 (YLLDMPLWYL; listed as Homo sapiens) [compound 267],+ (<20% = +)
